Assay results reported in US5726162A (priority 1996, dated 1998).

These molecules were tested on fungal mycelium (assay: organism not typed). Details: read-out: % growth inhibition.
Format: cell-based
`CC#CCN1N=C(C=Cc2ccc(Cl)cc2)CCC1=O` [Compound 24] gave an inhibition at 200 ppm of 6.1%.
`O=C(O)C#CCN1N=C(c2ccc(Cl)cc2)CCC1=O` [Compound 54, 6-(4-chlorophenyl)-2-(3'-carboxy-2'-propynyl)-4,5-dihydropyridazinone] gave an inhibition at 200 ppm of 71.4%.
`CC#CCN1N=C(c2ccc(Cl)c(C)c2)CCC1=O` [Compound 63] showed an inhibition at 200 ppm of 100%.
Molecule `CCC#CCN1N=C(c2ccc(C#N)cc2)CCC1=O` [Compound 64] has an inhibition at 25 ppm of 100%.
For `CCC#CCN1N=C(c2ccc([N+](=O)[O-])cc2)CCC1=O` [Compound 65], the inhibition at 50 ppm was 84%.
Molecule `CCC#CCN1N=C(c2ccc(OCC)cc2)CCC1=O` [Compound 66] has an inhibition at 25 ppm of 100%.
`CCC#CCN1N=C(c2ccc(Cl)c(F)c2)CCC1=O` [Compound 74, 6-(4-chloro-3-fluorophenyl)-2-(2'-pentynyl)-4,5-dihydropyridazinone] showed an inhibition at 1 ppm of 100%.
Molecule `O=C1CCC(c2ccc(Cl)cc2)=NN1CC=C(Br)CBr` [Compound 75] has an inhibition at 100 ppm of 100%.
`CCC#CCN1N=C(c2ccc(OC)cc2)CCC1=O` [Compound 81] was tested, and the inhibition at 2.5 ppm was 95.8%.
Work on `CCC#CCN1N=C(c2ccc(F)cc2)CCC1=O` [Compound 82] yielded an inhibition at 2.5 ppm of 100%.
`CC#CCN1N=C(c2ccc(Cl)c(F)c2)CCC1=O` [Compound 83] gave an inhibition at 0.5 ppm of 81.3%.
Molecule `CCC#CCN1N=C(c2ccc(Br)c(F)c2)CCC1=O` [Compound 97] has an inhibition at 1 ppm of 100%.
Work on `CCC#CCN1N=C(c2cc(F)cc(F)c2)CCC1=O` [Compound 98] yielded an inhibition at 10 ppm of 40%.
In the case of `CCC#CCn1nc(-c2cc(F)cc(F)c2)ccc1=O` [Compound 126], the inhibition at 10 ppm is reported as 100%.
Work on `CCC#CCN1N=C(c2ccc(Cl)cc2)COC1=O` [Compound 162, 2-(4-chlorophenyl)-3-(2-pentyn-1-yl)-3H, 6H-1,3,4-oxadiazin-2-one] yielded an inhibition at 10 ppm of 96.9%.
`CC#CCN1N=C(c2ccc(Cl)cc2)COC1=O` [Compound 163] was tested, and the inhibition at 10 ppm was 12.7%.
With `CCC#CCN1N=C(c2ccccc2)COC1=O` [Compound 164] the inhibition at 100 ppm was 14.2%.
Work on `CCC#CCN1N=C(c2ccc(Cl)cc2)CSC1=O` [Compound 165, 5-(4-chlorophenyl)-3-(2-pentyn-1-yl)-3H,6H-1,3,4-thiadiazin-2-one] yielded an inhibition at 100 ppm of 100%.
`CCC#CCN1N=C2c3ccc(Cl)cc3CCC2CC1=O` (centres unmarked) [Compound 200, 4,4a,5,6-tetrahydro-8-chloro[h]-cinnolin-2-(2'-pentynyl)-3-one] gave an inhibition at 10 ppm of 100%.
In the case of `CN1N=C(c2ccc(Cl)cc2)CCC1=O` [Compound 201, 6-(4-chlorophenyl)-2-methyl-4,5-dihydropyridazinone], the inhibition at 10 ppm is reported as 10%.
`CCC#CCn1nc2c(cc1=O)CCc1cc(Cl)ccc1-2` [Compound 202, 5 6-dihydro-8-chlorobenzo[h]cinnolin-3-(2'-pentynyl)-one] gave an inhibition at 10 ppm of 100%.
In the case of `CCC#CCC1CC(c2ccc(Cl)cc2)=NN(C)C1=O` (centres unmarked) [Compound 203, 6-(4-chlorophenyl)-4-(2'-pentynyl)-2-methyl-4,5-dihydropyridazinone], the inhibition at 10 ppm is reported as 100%.
`Cc1ccc(Cn2nc(-c3ccc(Cl)cc3)ccc2=O)o1` [Compound 204, 6-(4-chlorophenyl)-2-(5-methyl-2-furanylmethylene)-pyridazinone] gave an inhibition at 10 ppm of 100%.
`CCC#CCN1N=C(C=Cc2ccc(Cl)cc2)CCC1=O` [Compound 205, 6-(4-chlorostyryl)-2-(2'-pentynyl)-4,5-dihydropyridazinone] showed an inhibition at 10 ppm of 100%.
For `CCC#CCN1N=C(CCc2ccc(Cl)cc2)CCC1=O` [Compound 206, 6-(4-chlorophenethyl)-2-(2'-pentynyl)-4,5-dihydropyridazinone], the inhibition at 1 ppm was 14.3%.
In the case of `CCC#CCN1N=C(c2ccc3c(c2)OCO3)CCC1=O` [Compound 207, 6-(3,4-methylenedioxyphenyl)-2-(2'-pentynyl)-4,5-dihydropyridazinone], the inhibition at 1 ppm is reported as 100%.
`CCC#CC(C)N1N=C(c2ccc(Cl)cc2)CCC1=O` (centres unmarked) [Compound 208, 6-(4-chlorophenyl)-2-(1-methyl-2-pentynyl)-4,5-dihydropyridazinone] was tested, and the inhibition at 1 ppm was 28.6%.
In the case of `CCC#CCN1N=C(c2ccccc2F)CCC1=O` [Compound 209, 6-(2-fluorophenyl)-2-(2'-pentynyl)-4,5-dihydropyridazinone], the inhibition at 50 ppm is reported as 85.7%.
Molecule `CCC#CCN1N=C(c2ccccc2C)CCC1=O` [Compound 210, 6-(2-methylphenyl)-2-(2'-pentynyl)-4,5-dihydropyridazinone] has an inhibition at 50 ppm of 35%.
`CCC#CCN1N=C(c2ccccc2Cl)CCC1=O` [Compound 211, 6-(2-chlorophenyl)-2-(2'-pentynyl)-4,5-dihydropyridazinone] showed an inhibition at 50 ppm of 30%.
For `CCC#CCN1N=C(c2ccccc2OC)CCC1=O` [Compound 212, 6-(2-methoxyphenyl)-2-(2'-pentynyl)-4,5-dihydropyridazinone], the inhibition at 50 ppm was 35%.
`CCC#CCN1N=C(c2cccc(C(F)(F)F)c2)CCC1=O` [Compound 213, 6-(3-trifluoromethylphenyl)-2-(2'-pentynyl)-4,5-dihydropyridazinone] was tested, and the inhibition at 50 ppm was 100%.
`CCC#CCN1N=C(c2cccc(F)c2)CCC1=O` [Compound 214, 6-(3-fluorophenyl)-2-(2'-pentynyl)-4,5-dihydropyridazinone] gave an inhibition at 50 ppm of 100%.
`CCC#CCN1N=C(c2cccc(C)c2)CCC1=O` [Compound 215, 6-(3-methylphenyl)-2-(2'-pentynyl)-4,5-dihydropyridazinone] showed an inhibition at 50 ppm of 100%.
Work on `CCC#CCN1N=C(c2cccc(Cl)c2)CCC1=O` [Compound 216, 6-(3-chlorophenyl)-2-(2'-pentynyl)-4,5-dihydropyridazinone] yielded an inhibition at 50 ppm of 100%.
`CCC#CCN1N=C(c2cccc(C#N)c2)CCC1=O` [Compound 217, 6-(3-cyanophenyl)-2-(2'-pentynyl)-4,5-dihydropyridazinone] gave an inhibition at 50 ppm of 100%.
`CCC#CCN1N=C(c2cccc([N+](=O)[O-])c2)CCC1=O` [Compound 218, 6-(3-nitrophenyl)-2-(2'-pentynyl)-4,5-dihydropyridazinone] showed an inhibition at 50 ppm of 100%.
With `CCC#CCN1N=C(c2cccc(OC)c2)CCC1=O` [Compound 219, 6-(3-methoxyphenyl)-2-(2'-pentynyl)-4,5-dihydropyridazinone] the inhibition at 50 ppm was 100%.
Work on `CCC#CCN1N=C(c2ccc(C)c(OC)c2)CCC1=O` [Compound 220, 6-(3-methoxy-4-methylphenyl)-2-(2'-pentynyl)-4,5-dihydropyridazinone] yielded an inhibition at 50 ppm of 100%.
Molecule `CCC#CCN1N=C(c2ccc(F)c(F)c2)CCC1=O` [Compound 224, 6-(3,4-difluorophenyl)-2-(2'-pentynyl)-4,5-dihydropyridazinone] has an inhibition at 50 ppm of 100%.
Work on `CCC#CCN1N=C(c2ccc(C)c(F)c2)CCC1=O` [Compound 225, 6-(3-fluoro-4-methylphenyl)-2-(2'-pentynyl)-4,5-dihydropyridazinone] yielded an inhibition at 50 ppm of 100%.
Work on `CCC#CCN1N=C(c2ccc(OC)c(C)c2)CCC1=O` [Compound 226] yielded an inhibition at 50 ppm of 100%.
`CCC#CCN1N=C(c2ccc3c(c2)CCc2ccccc2-3)CCC1=O` [Compound 227, 6-(9,10-dihydro-2-phenanthrene)-2-(2'-pentynyl)-4,5-dihydropyridazinone] showed an inhibition at 10 ppm of 30%.
`CCC#CCn1nc(-c2ccccc2)c(-c2ccccc2)c(C#N)c1=O` [Compound 228, 5,6-diphenyl-4-cyano-2-(2'-pentynyl)-pyridazinone] showed an inhibition at 10 ppm of 50%.
`CCC#CCN1N=C(c2cnc3ccccc3n2)CCC1=O` [Compound 230, 6-(2-quinoxaline)-2-(2'-pentynyl)-4,5-dihydropyridazinone] gave an inhibition at 10 ppm of 30%.
`Cc1noc(C)c1CN1N=C(c2ccc(Cl)cc2)CCC1=O` [Compound 231, 6-(4-chlorophenyl)-2-(3,5-dimethyl-4-isoxolylmethyl)-4,5-dihydropyridazinone] gave an inhibition at 10 ppm of 36%.
Molecule `CCC#CCn1nc2c(cc1=O)-c1cccc3cccc-2c13` [Compound 232, 8-(2'-pentynyl)-acenaphtho[1,2c]pyridazin-9-one] has an inhibition at 5 ppm of 45.5%.
In the case of `NNC(=O)CN1N=C(c2ccc(Cl)cc2)CCC1=O` [Compound 233, 6-(4-chlorophenyl)-2-(acetyl hydrazide)4,5-dihydropyridazinone], the inhibition at 100 ppm is reported as 21%.
`CC(=O)CC(C)=NNC(=O)CN1N=C(c2ccc(Cl)cc2)CCC1=O` [Compound 234, 6-(4-chlorophenyl)-2-[N-acetylhydrazide-(N'-2,4-pentanedione-hydrazone)]-4,5-dihydropyridazinone] gave an inhibition at 100 ppm of 42%.
Molecule `CCC#CCN1N=C(c2csc3ccccc23)CCC1=O` [Compound 235, 6-(3-thianaphthene)-2-(2'-pentynyl)-4,5-dihydropyridazinone] has an inhibition at 100 ppm of 100%.
Work on `CCC#CCn1nc(-c2csc3ccccc23)ccc1=O` [Compound 236, 6-(3-thianaphthene)-2-(2'-pentynyl)-pyridazinone] yielded an inhibition at 100 ppm of 100%.
For `Cc1cc(C)n(C(=O)CN2N=C(c3ccc(Cl)cc3)CCC2=O)n1` [Compound 237, 6-(4-chlorophenyl)-2-(3,5-dimethyl-1-pyrazoylmethylene)-4,5-dihydropyridazinone], the inhibition at 100 ppm was 58%.
Molecule `O=C1CCC(c2ccc(Cl)cc2)=NN1Cc1n[nH]c(=O)o1` [Compound 238] has an inhibition at 100 ppm of 31.6%.
In the case of `CCC#CCn1nc(CN2N=C(c3ccc(Cl)cc3)CCC2=O)oc1=O` [Compound 239], the inhibition at 100 ppm is reported as 100%.
Work on `O=C(CN1N=C(c2ccc(Cl)cc2)CCC1=O)NN=Cc1cc(Cl)cc(Cl)c1O` [Compound 240, 6-(4-chlorophenyl)-2-[N-acetylhydrazide-(N'-3,5-dichloro-2-hydroxy-phenylhydrazone)]-4,5-dihydropyridazinone] yielded an inhibition at 100 ppm of 14%.
For `O=C1CCC(c2ccc(Cl)cc2)=NN1Cc1nn(CC#CI)c(=O)o1` [Compound 241], the inhibition at 100 ppm was 100%.

These molecules were tested on Magnaporthe grisea (Pyricularia oryzae) (assay: whole plant or invertebrate). Details: Pyricularia oryzae, 144 h, read-out: % Control RB.
Format: in vivo, Magnaporthe grisea (Pyricularia oryzae) on M201 rice plants
For `CC#CCN1N=C(C=Cc2ccc(Cl)cc2)CCC1=O` [Compound 24], the pest or weed control at 200 ppm was 0%.
Work on `O=C(O)C#CCN1N=C(c2ccc(Cl)cc2)CCC1=O` [Compound 54, 6-(4-chlorophenyl)-2-(3'-carboxy-2'-propynyl)-4,5-dihydropyridazinone] yielded a pest or weed control at 200 ppm of 0%.
Work on `CC#CCN1N=C(c2ccc(Cl)c(C)c2)CCC1=O` [Compound 63] yielded a pest or weed control at 200 ppm of 0%.
For `CCC#CCN1N=C(c2ccc(C#N)cc2)CCC1=O` [Compound 64], the pest or weed control at 200 ppm was 0%.
Molecule `CCC#CCN1N=C(c2ccc([N+](=O)[O-])cc2)CCC1=O` [Compound 65] has a pest or weed control at 200 ppm of 0%.
Work on `CCC#CCN1N=C(c2ccc(OCC)cc2)CCC1=O` [Compound 66] yielded a pest or weed control at 200 ppm of 0%.
`CCC#CCN1N=C(c2ccc(Cl)c(F)c2)CCC1=O` [Compound 74, 6-(4-chloro-3-fluorophenyl)-2-(2'-pentynyl)-4,5-dihydropyridazinone] gave a pest or weed control at 200 ppm of 75%.
Work on `O=C1CCC(c2ccc(Cl)cc2)=NN1CC=C(Br)CBr` [Compound 75] yielded a pest or weed control at 200 ppm of 0%.
With `CCC#CCN1N=C(c2ccc(OC)cc2)CCC1=O` [Compound 81] the pest or weed control at 200 ppm was 95%.
With `CCC#CCN1N=C(c2ccc(F)cc2)CCC1=O` [Compound 82] the pest or weed control at 200 ppm was 0%.
`CC#CCN1N=C(c2ccc(Cl)c(F)c2)CCC1=O` [Compound 83] gave a pest or weed control at 200 ppm of 90%.
`CC#CCN1N=C(c2ccc3ccccc3c2)CCC1=O` [Compound 135] was tested, and the pest or weed control at 200 ppm was 0%.
